Measured values from ChEMBL document CHEMBL2029308, “Synthesis and anti-leishmanial activity of 1-aryl-β-carboline derivatives against Leishmania donovani” (Bioorg Med Chem Lett, 2012).

Experiments:
[1] = Cytotoxicity against mouse peritoneal macrophages; type: cell-based, Peritoneal macrophage cell
[2] = tested on: Leishmania donovani; assay: Antileishmanial activity against Leishmania donovani MHOM/ET/67/HU3 after 72 hrs by MTT assay; type: functional, organism-based; details: MHOM/ET/67/HU3, 72 h
[3] = Selectivity ratio of CC50 for mouse peritoneal macrophages to IC50 for Leishmania donovani MHOM/ET/67/HU3

SMILES: O=[N+]([O-])c1ccc(-c2[nH]ccc3c4ccccc4nc2-3)cc1
- CC50 [1]: > 50 µM
- IC50 [2]: > 100 µM

SMILES: O=C(Nc1ccc(-c2nccc3c2[nH]c2ccccc23)cc1)c1cccc2ccccc12
- CC50 [1]: > 50 µM
- IC50 [2]: > 100 µM

SMILES: O=C(O)C1Cc2c([nH]c3ccccc23)C(c2ccc([N+](=O)[O-])cc2)N1 (stereo unspecified)
- CC50 [1]: > 50 µM
- IC50 [2]: > 100 µM

SMILES: Nc1ccc(-c2nccc3c2[nH]c2ccccc23)cc1
- CC50 [1]: > 50 µM
- IC50 [2]: 46.6 µM

SMILES: CC(=O)Nc1ccc(-c2nccc3c2[nH]c2ccccc23)cc1
- Ratio CC50/IC50 [3]: >20
- CC50 [1]: > 50 µM
- IC50 [2]: 2.16 µM

SMILES: O=C(Nc1ccc(-c2nccc3c2[nH]c2ccccc23)cc1)c1ccc2ccccc2c1
- CC50 [1]: > 50 µM
- IC50 [2]: 8.84 µM

SMILES: COc1ccc(C(=O)Nc2ccc(-c3nccc4c3[nH]c3ccccc34)cc2)cc1
- CC50 [1]: > 50 µM
- IC50 [2]: 12.3 µM

SMILES: O=C(Nc1ccc(-c2nccc3c2[nH]c2ccccc23)cc1)c1cccs1
- CC50 [1]: > 50 µM
- IC50 [2]: 15 µM

SMILES: CCCCCCCCCCCCCC(=O)Nc1ccc(-c2nccc3c2[nH]c2ccccc23)cc1
- CC50 [1]: > 50 µM
- IC50 [2]: > 100 µM

SMILES: O=C(Nc1ccc(-c2nccc3c2[nH]c2ccccc23)cc1)c1ccco1
- CC50 [1]: > 50 µM
- IC50 [2]: 6.38 µM

SMILES: O=C(Nc1ccc(-c2nccc3c2[nH]c2ccccc23)cc1)c1ccccc1
- CC50 [1]: > 50 µM
- IC50 [2]: 9.68 µM

SMILES: C=CCCCCCCCCC(=O)Nc1ccc(-c2nccc3c2[nH]c2ccccc23)cc1
- CC50 [1]: > 50 µM
- IC50 [2]: > 100 µM

SMILES: O=C(Nc1ccc(-c2nccc3c2[nH]c2ccccc23)cc1)c1ccc(F)cc1F
- CC50 [1]: > 50 µM
- IC50 [2]: > 100 µM

SMILES: O=C(Nc1ccc(-c2nccc3c2[nH]c2ccccc23)cc1)c1ccc(F)c(F)c1
- CC50 [1]: > 50 µM
- IC50 [2]: 13.1 µM

SMILES: CC(C)(C)c1ccc(C(=O)Nc2ccc(-c3nccc4c3[nH]c3ccccc34)cc2)cc1
- CC50 [1]: > 50 µM
- IC50 [2]: > 100 µM

SMILES: Cc1ccc(C(=O)Nc2ccc(-c3nccc4c3[nH]c3ccccc34)cc2)cc1
- CC50 [1]: > 50 µM
- IC50 [2]: 14.3 µM

SMILES: CCCCC(=O)Nc1ccc(-c2nccc3c2[nH]c2ccccc23)cc1
- CC50 [1]: > 50 µM
- IC50 [2]: 19.7 µM

SMILES: CCCCCCCCCCCC(=O)Nc1ccc(-c2nccc3c2[nH]c2ccccc23)cc1
- CC50 [1]: > 50 µM
- IC50 [2]: > 100 µM

SMILES: O=C(/C=C/c1ccccc1)Nc1ccc(-c2nccc3c2[nH]c2ccccc23)cc1
- CC50 [1]: > 50 µM
- IC50 [2]: 7.7 µM

SMILES: Cc1cc(C(=O)Nc2ccc(-c3nccc4c3[nH]c3ccccc34)cc2)c(C)o1
- CC50 [1]: > 50 µM
- IC50 [2]: 30.1 µM

SMILES: O=C(Nc1ccc(-c2nccc3c2[nH]c2ccccc23)cc1)c1ccc(C(F)(F)F)cc1
- CC50 [1]: > 50 µM
- IC50 [2]: > 100 µM

SMILES: N#Cc1ccc(C(=O)Nc2ccc(-c3nccc4c3[nH]c3ccccc34)cc2)cc1
- CC50 [1]: > 50 µM
- IC50 [2]: 5.31 µM

SMILES: CCCCCCCCCCCCCCCCOP(=O)([O-])OCC[N+](C)(C)C [MILTEFOSINE]
- IC50 [2]: 12.1 µM
